Data published in ChEMBL document CHEMBL1201861, “Genomics of Drug Sensitity in Cancer screening data, Wellcome Trust Sanger Institute”.
pIC50: −log10 of the molar value.

What was measured:
Test in all cases: cells
CAL-12T = type: functional, cell-based, Homo sapiens; conditions: Homo sapiens, CAL-12T;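 also: growth inhibition of human CAL-12T cells, read out with a cell viability assay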
Description: SANGER: Inhibition of human CAL-12T cell growth in a cell viability assay.

HCC1569 = type: functional, cell-based; conditions: Homo sapiens;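 also: growth inhibition of human HCC1569 cells, read out with a cell viability assay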
Description: SANGER: Inhibition of human HCC1569 cell growth in a cell viability assay.

PANC-03-27 = type: functional, cell-based; conditions: Homo sapiens
Description: SANGER: Inhibition of human PANC-03-27 cell growth in a cell viability assay.

ACHN = type: functional, cell-based; conditions: Homo sapiens;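 also: cell viability read-out used to gauge how strongly growth of human ACHN cells is suppressed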
Description: SANGER: Inhibition of human ACHN cell growth in a cell viability assay.

PC-3 = type: functional, cell-based; conditions: Homo sapiens;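 also: cell viability assay measuring growth inhibition of PC-3 cells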
Description: SANGER: Inhibition of human PC-3 cell growth in a cell viability assay.

LU-99A = type: functional, cell-based; conditions: Homo sapiens;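 also: growth inhibition of LU-99A cells, read out with a cell viability assay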
Description: SANGER: Inhibition of human LU-99A cell growth in a cell viability assay.

NCI-H2342 = type: functional, cell-based; conditions: Homo sapiens;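 also: growth inhibition of the cancer cell line, determined with a cell viability assay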
Description: SANGER: Inhibition of human NCI-H2342 cell growth in a cell viability assay.

COR-L23 = type: functional, cell-based; conditions: Homo sapiens;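 also: cell viability assay measuring how strongly compounds suppress growth of COR-L23 cells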
Description: SANGER: Inhibition of human COR-L23 cell growth in a cell viability assay.

HSC-3 = type: functional, cell-based; conditions: Homo sapiens
Description: SANGER: Inhibition of human HSC-3 cell growth in a cell viability assay.

LN-405 = type: functional, cell-based; conditions: Homo sapiens
Description: SANGER: Inhibition of human LN-405 cell growth in a cell viability assay.

MKN-28 = type: functional, cell-based; conditions: Homo sapiens;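 also: cell viability assay read-out, IC50 reflects suppression of growth of human MKN-28 cells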
Description: SANGER: Inhibition of human MKN28 cell growth in a cell viability assay.

KYSE-520 cell line = type: functional, cell-based; conditions: Homo sapiens;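 also: growth inhibition of human KYSE-520 cells, read out with a viability assay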
Description: SANGER: Inhibition of human KYSE-520 cell growth in a cell viability assay.

COLO-678 = type: functional, cell-based; conditions: Homo sapiens
Description: SANGER: Inhibition of human COLO-678 cell growth in a cell viability assay.

S-117 = type: functional, cell-based; conditions: Homo sapiens
Description: SANGER: Inhibition of human S-117 cell growth in a cell viability assay.

NCI-H1437 = type: functional, cell-based; conditions: Homo sapiens;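 also: growth inhibition of human NCI-H1437 cells, read out by a cell viability assay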
Description: SANGER: Inhibition of human NCI-H1437 cell growth in a cell viability assay.

NCI-H441 = type: functional, cell-based; conditions: Homo sapiens;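 also: growth inhibition of NCI-H441 cells, read out with a cell viability assay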
Description: SANGER: Inhibition of human NCI-H441 cell growth in a cell viability assay.

SK-MEL-28 = type: functional, cell-based; conditions: Homo sapiens;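 also: growth inhibition of human SK-MEL-28 cells, read out with a cell viability assay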
Description: SANGER: Inhibition of human SK-MEL-28 cell growth in a cell viability assay.

5637 = type: functional, cell-based; conditions: Homo sapiens
Description: SANGER: Inhibition of human 5637 cell growth in a cell viability assay.

NCI-H28 = type: functional, cell-based; conditions: Homo sapiens;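 also: growth inhibition of human NCI-H28 cells, read out as cell viability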
Description: SANGER: Inhibition of human NCI-H28 cell growth in a cell viability assay.

SCC-4 = type: functional, cell-based; conditions: Homo sapiens;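 also: growth inhibition of human SCC-4 cells, read out as cell viability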
Description: SANGER: Inhibition of human SCC-4 cell growth in a cell viability assay.

HT-1376 = type: functional, cell-based; conditions: Homo sapiens
Description: SANGER: Inhibition of human HT-1376 cell growth in a cell viability assay.

M14 = type: functional, cell-based; conditions: Homo sapiens;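 also: growth inhibition of M14 cells, read out with a cell viability assay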
Description: SANGER: Inhibition of human M14 cell growth in a cell viability assay.

SAS = type: functional, cell-based; conditions: Homo sapiens;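 also: growth inhibition of SAS cells, read out with a cell viability assay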
Description: SANGER: Inhibition of human SAS cell growth in a cell viability assay.

OVCAR-3 = type: functional, cell-based; conditions: Homo sapiens;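 also: growth inhibition of human OVCAR-3 cells, determined by a cell viability assay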
Description: SANGER: Inhibition of human OVCAR-3 cell growth in a cell viability assay.

SAOS-2 = type: functional, cell-based; conditions: Homo sapiens;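 also: growth inhibition of human Saos-2 cells determined by a cell viability assay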
Description: SANGER: Inhibition of human Saos-2 cell growth in a cell viability assay.

CHL-1 = type: functional, cell-based; conditions: Homo sapiens;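 also: cell growth inhibition, read out with a cell viability assay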
Description: SANGER: Inhibition of human CHL-1 cell growth in a cell viability assay.

SW1990 = type: functional, cell-based; conditions: Homo sapiens;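 also: cell growth inhibition determined with a viability assay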
Description: SANGER: Inhibition of human SW1990 cell growth in a cell viability assay.

SK-LU-1 = type: functional, cell-based; conditions: Homo sapiens;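 also: cell viability assay measuring growth inhibition of human SK-LU-1 cells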
Description: SANGER: Inhibition of human SK-LU-1 cell growth in a cell viability assay.

HEC-1 = type: functional, cell-based; conditions: Homo sapiens;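 also: growth inhibition of the cell line, read out with a cell viability assay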
Description: SANGER: Inhibition of human HEC-1 cell growth in a cell viability assay.

PC-14 = type: functional, cell-based; conditions: Homo sapiens;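 also: cell viability assay measuring inhibition of PC-14 cell growth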
Description: SANGER: Inhibition of human PC-14 cell growth in a cell viability assay.

8505C = type: functional, cell-based; conditions: Homo sapiens
Description: SANGER: Inhibition of human 8505C cell growth in a cell viability assay.

647-V = type: functional, cell-based; conditions: Homo sapiens;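 also: growth inhibition of 647-V cells, read out with a cell viability assay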
Description: SANGER: Inhibition of human 647-V cell growth in a cell viability assay.

G-402 = type: functional, cell-based; conditions: Homo sapiens
Description: SANGER: Inhibition of human G-402 cell growth in a cell viability assay.

SW780 = type: functional, cell-based; conditions: Homo sapiens;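 also: growth inhibition of the cells, read out with a cell viability assay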
Description: SANGER: Inhibition of human SW780 cell growth in a cell viability assay.

KYSE-410 = type: functional, cell-based; conditions: Homo sapiens;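 also: growth inhibition of KYSE-410 cells, measured through a cell viability readout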
Description: SANGER: Inhibition of human KYSE-410 cell growth in a cell viability assay.

JEG-3 = type: functional, cell-based; conditions: Homo sapiens;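 also: growth inhibition of human JEG-3 cells, read out with a cell viability assay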
Description: SANGER: Inhibition of human JEG-3 cell growth in a cell viability assay.

CAMA-1 = type: functional, cell-based; conditions: Homo sapiens;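 also: growth inhibition of CAMA-1 cells, read out with a cell viability assay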
Description: SANGER: Inhibition of human CAMA-1 cell growth in a cell viability assay.

PA-1 = type: functional, cell-based; conditions: Homo sapiens;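 also: IC50 for suppression of PA-1 cell proliferation, determined with a cell viability read-out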
Description: SANGER: Inhibition of human PA-1 cell growth in a cell viability assay.

Kasumi 1 = type: functional, cell-based; conditions: Homo sapiens;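 also: growth inhibition of human Kasumi-1 cells, read out by a cell viability assay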
Description: SANGER: Inhibition of human KASUMI-1 cell growth in a cell viability assay.

HuO9 = type: functional, cell-based; conditions: Homo sapiens;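 also: growth inhibition of HuO9 cells, read out with a cell viability assay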
Description: SANGER: Inhibition of human HuO9 cell growth in a cell viability assay.

SW626 = type: functional, cell-based; conditions: Homo sapiens;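 also: growth inhibition of SW626 cells, measured with a cell viability assay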
Description: SANGER: Inhibition of human SW626 cell growth in a cell viability assay.

RPMI-2650 = type: functional, cell-based; conditions: Homo sapiens
Description: SANGER: Inhibition of human RPMI-2650 cell growth in a cell viability assay.

SK-MEL3 = type: functional, cell-based, SK-MEL-3; conditions: Homo sapiens;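 also: growth inhibition of human SK-MEL-3 cells, read out with a cell viability assay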
Description: SANGER: Inhibition of human SK-MEL-3 cell growth in a cell viability assay.

COLO-680N = type: functional, cell-based; conditions: Homo sapiens;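 also: cell viability assay used to measure inhibition of COLO-680N cell growth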
Description: SANGER: Inhibition of human COLO-680N cell growth in a cell viability assay.

NCI-H661 = type: functional, cell-based; conditions: Homo sapiens;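 also: cell viability assay read-out, IC50 being the concentration that inhibits growth of the cells by half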
Description: SANGER: Inhibition of human NCI-H661 cell growth in a cell viability assay.

MCF7 = type: functional, cell-based; conditions: Homo sapiens;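 also: growth inhibition of human MCF7 cells, read out with a cell viability assay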
Description: SANGER: Inhibition of human MCF7 cell growth in a cell viability assay.

A-375 = type: functional, cell-based; conditions: Homo sapiens;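 also: growth inhibition of A375 cells, read out with a cell viability assay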
Description: SANGER: Inhibition of human A375 cell growth in a cell viability assay.

639-V = type: functional, cell-based; conditions: Homo sapiens;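 also: growth inhibition of 639-V cells, read out with a cell viability assay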
Description: SANGER: Inhibition of human 639-V cell growth in a cell viability assay.

LK-2 = type: functional, cell-based; conditions: Homo sapiens;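 also: growth inhibition of LK-2 cells, read out with a viability assay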
Description: SANGER: Inhibition of human LK-2 cell growth in a cell viability assay.

IGROV-1 = type: functional, cell-based; conditions: Homo sapiens;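 also: reduction of IGROV-1 cell growth, read out with a viability assay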
Description: SANGER: Inhibition of human IGROV-1 cell growth in a cell viability assay.

GP5d = type: functional, cell-based; conditions: Homo sapiens;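 also: growth inhibition of human GP5d cells, read out with a cell viability assay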
Description: SANGER: Inhibition of human GP5d cell growth in a cell viability assay.

Cn1cc(/C=C2\C(=O)Nc3cccnc32)c2ccccc21
pIC50 (CAL-12T): < 5.70
pIC50 (HCC1569): < 5.70
pIC50 (PANC-03-27): < 5.70
pIC50 (ACHN): < 5.70
pIC50 (PC-3): < 5.70
pIC50 (LU-99A): < 5.70
pIC50 (NCI-H2342): < 5.70
pIC50 (COR-L23): < 5.70
pIC50 (HSC-3): < 5.70
pIC50 (LN-405): < 5.70
pIC50 (MKN-28): < 5.70
pIC50 (KYSE-520 cell line): < 5.70
pIC50 (COLO-678): < 5.70
pIC50 (S-117): < 5.70
pIC50 (NCI-H1437): < 5.70
pIC50 (NCI-H441): < 5.70
pIC50 (SK-MEL-28): < 5.70
pIC50 5637: < 5.70
pIC50 (NCI-H28): < 5.70
pIC50 (SCC-4): < 5.70
pIC50 (HT-1376): < 5.70
pIC50 (M14): < 5.70
pIC50 (SAS): < 5.70
pIC50 (OVCAR-3): < 5.70
pIC50 (SAOS-2): < 5.70
pIC50 (CHL-1): < 5.70
pIC50 (SW1990): < 5.70
pIC50 (SK-LU-1): < 5.70
pIC50 (HEC-1): < 5.70
pIC50 (PC-14): < 5.70
pIC50 (8505C): < 5.70
pIC50 (647-V): < 5.70
pIC50 (G-402): < 5.70
pIC50 (SW780): < 5.70
pIC50 (KYSE-410): < 5.70
pIC50 (JEG-3): < 5.70
pIC50 (CAMA-1): < 5.70
pIC50 (PA-1): < 5.70
pIC50 (Kasumi 1): < 5.70
pIC50 (HuO9): < 5.70
pIC50 (SW626): < 5.70
pIC50 (RPMI-2650): < 5.70
pIC50 (SK-MEL3): < 5.70
pIC50 (COLO-680N): < 5.70
pIC50 (NCI-H661): < 5.70
pIC50 (MCF7): < 5.70
pIC50 (A-375): < 5.70
pIC50 (639-V): < 5.70
pIC50 (LK-2): < 5.70
pIC50 (IGROV-1): < 5.70
pIC50 (GP5d): < 5.70

COc1cc(Nc2c(C#N)cnc3cc(OCCCN4CCN(C)CC4)c(OC)cc23)c(Cl)cc1Cl [BOSUTINIB]
pIC50 (CAL-12T): < 5.70
pIC50 (HCC1569): < 5.70
pIC50 (PANC-03-27): < 5.70
pIC50 (ACHN): 6.27
pIC50 (PC-3): < 5.70
pIC50 (LU-99A): < 5.70
pIC50 (NCI-H2342): < 5.70
pIC50 (COR-L23): < 5.70
pIC50 (HSC-3): 5.95
pIC50 (LN-405): < 5.70
pIC50 (MKN-28): < 5.70
pIC50 (KYSE-520 cell line): < 5.70
pIC50 (COLO-678): < 5.70
pIC50 (S-117): < 5.70
pIC50 (NCI-H1437): < 5.70
pIC50 (NCI-H441): < 5.70
pIC50 (SK-MEL-28): < 5.70
pIC50 5637: 5.94
pIC50 (NCI-H28): < 5.70
pIC50 (SCC-4): < 5.70
pIC50 (HT-1376): 5.78
pIC50 (M14): < 5.70
pIC50 (SAS): < 5.70
pIC50 (OVCAR-3): < 5.70
pIC50 (SAOS-2): < 5.70
pIC50 (CHL-1): 6.26
pIC50 (SW1990): < 5.70
pIC50 (SK-LU-1): < 5.70
pIC50 (HEC-1): < 5.70
pIC50 (PC-14): 5.89
pIC50 (8505C): < 5.70
pIC50 (647-V): < 5.70
pIC50 (G-402): < 5.70
pIC50 (SW780): < 5.70
pIC50 (KYSE-410): < 5.70
pIC50 (JEG-3): < 5.70
pIC50 (CAMA-1): < 5.70
pIC50 (PA-1): < 5.70
pIC50 (Kasumi 1): 6.14
pIC50 (HuO9): < 5.70
pIC50 (SW626): < 5.70
pIC50 (RPMI-2650): < 5.70
pIC50 (SK-MEL3): < 5.70
pIC50 (COLO-680N): < 5.70
pIC50 (NCI-H661): < 5.70
pIC50 (MCF7): < 5.70
pIC50 (A-375): 5.82
pIC50 (639-V): < 5.70
pIC50 (LK-2): < 5.70
pIC50 (IGROV-1): 6.31
pIC50 (GP5d): < 5.70

C[C@]12O[C@H](C[C@]1(O)CO)n1c3ccccc3c3c4c(c5c6ccccc6n2c5c31)CNC4=O [LESTAURTINIB]
pIC50 (CAL-12T): 6.06
pIC50 (HCC1569): < 5.70
pIC50 (PANC-03-27): 6.47
pIC50 (ACHN): 6.98
pIC50 (PC-3): 5.77
pIC50 (LU-99A): 5.99
pIC50 (NCI-H2342): < 5.70
pIC50 (COR-L23): 6.18
pIC50 (HSC-3): 7.33
pIC50 (LN-405): < 5.70
pIC50 (MKN-28): < 5.70
pIC50 (KYSE-520 cell line): 5.71
pIC50 (COLO-678): < 5.70
pIC50 (S-117): 5.95
pIC50 (NCI-H1437): < 5.70
pIC50 (NCI-H441): < 5.70
pIC50 (SK-MEL-28): 6.49
pIC50 5637: 7.09
pIC50 (NCI-H28): 6.08
pIC50 (SCC-4): 5.87
pIC50 (HT-1376): < 5.70
pIC50 (M14): 7.30
pIC50 (SAS): 6.02
pIC50 (OVCAR-3): < 5.70
pIC50 (SAOS-2): 6.20
pIC50 (CHL-1): 7.87
pIC50 (SW1990): 5.86
pIC50 (SK-LU-1): 6.59
pIC50 (HEC-1): 6.43
pIC50 (PC-14): 6.35
pIC50 (8505C): 6.52
pIC50 (647-V): 6.00
pIC50 (G-402): 5.96
pIC50 (SW780): 6.49
pIC50 (KYSE-410): 5.85
pIC50 (JEG-3): 6.14
pIC50 (CAMA-1): 5.98
pIC50 (PA-1): 6.85
pIC50 (Kasumi 1): 7.72
pIC50 (HuO9): 6.25
pIC50 (SW626): 5.95
pIC50 (RPMI-2650): 5.93
pIC50 (SK-MEL3): 6.80
pIC50 (COLO-680N): < 5.70
pIC50 (NCI-H661): < 5.70
pIC50 (MCF7): < 5.70
pIC50 (A-375): 6.48
pIC50 (639-V): 6.16
pIC50 (LK-2): 6.37
pIC50 (IGROV-1): 6.34
pIC50 (GP5d): 6.75
